The test concerns A/CK/ANYANG/MS96 (H9N2). On the set-up: species or system low-pathogenic avian influenza H9N2 serotype virus.

We go through 1 molecule from US20200190464A1, “NOVEL LAC[…] ANTIVIRAL EFFECT AND COMPOSITION THEREOF” (priority 2017, published 2020).

Turning to `CCOC(=O)C1=C[C@@H](OC(CC)CC)[C@H](NC(C)=O)[C@@H](N)C1` [Tamiflu, Oseltamivir phosphate], the “HA positive (eggs)” value was 0/3; the HA titer is reported as 0; the “antiviral activity (virus detection in sensitized and inoculated eggs)” value is recorded as “showed antiviral activity”.
